PMC9452538, “The antimicrobial peptide LI14 combats multidrug-resistant bacterial infections” (Communications Biology, 2022)
Values after ≈ are worked out from the molar mass of the structure shown.

Tests used:
S. aureus ATCC 29213 = experiment: microbe, parasite or virus in culture; type: cell-based, Staphylococcus aureus; conditions: Staphylococcus aureus, ATCC29213
Outline: (§1)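 Standard CLSI broth microdilution (2021 guidelines) in MHB with exponential-phase inoculum.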

MRSA T144 = experiment: microbe, parasite or virus in culture; type: cell-based, Staphylococcus aureus; conditions: Staphylococcus aureus; MRSA T144; MHB, 16-18 h, 37 °C; read-out: MIC
Outline: as §1

E. faecalis 1F-1 = experiment: microbe, parasite or virus in culture; type: cell-based; conditions: Enterococcus faecalis, 1F1; E. faecalis 1F-1; MHB, 16-18 h, 37 °C; read-out: MIC
Procedure: (§2) An antimicrobial activity study was conducted on all peptides against a panel of laboratory bacteria, including ATCC source and clinical isolates with resistance determinants. According to CLSI2021 guidelines, we tested the minimum inhibitory concentrations (MICs) of peptides using standard broth micro-dilutions. Briefly, bacteria grown to exponential phase were diluted in 1:1000 to MHB, subsequently, equivalent amounts of bacterial suspension (1.5 × 10^6 CFUs/mL) were mixed with different concentrations of peptides in a sterilized 96-well microtiter plate (Corning).

[1] = test system: S. enteritidis ATCC 13076; experiment: microbe, parasite or virus in culture; type: cell-based; conditions: Salmonella enterica
Procedure: as §2

[2] = test system: E. faecalis A4 (VRE, VanA); experiment: microbe, parasite or virus in culture; type: cell-based; conditions: Enterococcus faecalis, VRE
Procedure: as §2

E. faecium 5F-10 = experiment: microbe, parasite or virus in culture; type: cell-based, Enterococcus faecium; conditions: Enterococcus faecium, 5F10
Procedure: as §2

[3] = test system: K. pneumoniae D120 (mcr-8); experiment: microbe, parasite or virus in culture; type: cell-based, Klebsiella pneumoniae; conditions: Klebsiella pneumoniae; K. pneumoniae D120 (mcr-8); MHB, 16-18 h, 37 °C; read-out: MIC
Procedure: as §2

[4] = test system: K. pneumoniae ATCC 700603; experiment: microbe, parasite or virus in culture; type: cell-based, Klebsiella pneumoniae; conditions: Klebsiella pneumoniae, ATCC700603; K. pneumoniae ATCC 700603; MHB, 16-18 h, 37 °C; read-out: MIC
Procedure: as §2

[5] = test system: sensitive E. coli ATCC 25922; experiment: Checkerboard assay with LI14; type: cell-based, Escherichia coli
[6] = test system: tigecycline-resistant E. coli B3-1; experiment: Checkerboard assay with LI14; type: cell-based, Escherichia coli
[7] = test system: A. baumannii C222 (tet(X6)); experiment: microbe, parasite or virus in culture; type: cell-based, Acinetobacter baumannii; conditions: Acinetobacter baumannii; A. baumannii C222 (tet(X6)); MHB, 16-18 h, 37 °C; read-out: MIC
Procedure: as §2

A. baumannii ATCC 19609 = experiment: microbe, parasite or virus in culture; type: cell-based, Acinetobacter baumannii; conditions: Acinetobacter baumannii, ATCC19609; A. baumannii ATCC 19609; MHB, 16-18 h, 37 °C; read-out: MIC
Procedure: as §2

[8] = test system: S. aureus 215 (cfr + LZD^R); experiment: MIC broth microdilution; type: cell-based, Staphylococcus aureus; conditions: Staphylococcus aureus
Procedure: as §2

S. aureus G16 (RIF^R) = experiment: MIC broth microdilution; type: cell-based, Staphylococcus aureus; conditions: Staphylococcus aureus
Procedure: as §2

E. coli ATCC 25922 = experiment: microbe, parasite or virus in culture; type: cell-based, Escherichia coli; conditions: Escherichia coli, ATCC25922
Outline: as §1

[9] = test system: E. coli B2 (blaNDM-5 + mcr-1); experiment: microbe, parasite or virus in culture; type: cell-based, Escherichia coli; conditions: Escherichia coli; E. coli B2 (blaNDM-5 + mcr-1); MHB, 16-18 h, 37 °C; read-out: MIC
Outline: as §1

E. coli G92 (mcr-1) = experiment: microbe, parasite or virus in culture; type: cell-based, Escherichia coli; conditions: Escherichia coli; E. coli G92 (mcr-1); MHB, 16-18 h, 37 °C; read-out: MIC
Procedure: as §2

E. coli G6 (blaNDM-5) = experiment: microbe, parasite or virus in culture; type: cell-based, Escherichia coli; conditions: Escherichia coli; E. coli G6 (blaNDM-5); MHB, 16-18 h, 37 °C; read-out: MIC
Procedure: as §2

E. coli CP131 (mcr-3) = experiment: microbe, parasite or virus in culture; type: cell-based, Escherichia coli; conditions: Escherichia coli; E. coli CP131 (mcr-3); MHB, 16-18 h, 37 °C; read-out: MIC
Procedure: as §2

E. coli 1F28 (tet(X4)) = experiment: microbe, parasite or virus in culture; type: cell-based, Escherichia coli; conditions: Escherichia coli; E. coli 1F28 (tet(X4)); MHB, 16-18 h, 37 °C; read-out: MIC
Procedure: as §2

E. coli B3-1 (tet(X4)) = experiment: microbe, parasite or virus in culture; type: cell-based, Escherichia coli; conditions: Escherichia coli; E. coli B3-1 (tet(X4)); MHB, 16-18 h, 37 °C; read-out: MIC
Procedure: as §2

E. coli C3 (blaNDM-1) = experiment: microbe, parasite or virus in culture; type: cell-based, Escherichia coli; conditions: Escherichia coli; E. coli C3 (blaNDM-1); MHB, 16-18 h, 37 °C; read-out: MIC
Procedure: as §2

[10] = test system: E. coli DH5α (PUC19-tet(X4)); experiment: MIC broth microdilution; type: cell-based; conditions: Escherichia coli
Procedure: as §2

[11] = test system: E. coli DH5α (PUC19-blaNDM-5); experiment: MIC broth microdilution; type: cell-based; conditions: Escherichia coli
Procedure: as §2

[12] = test system: E. coli DH5α (PUC19-blaNDM-1); experiment: MIC broth microdilution; type: cell-based; conditions: Escherichia coli
Procedure: as §2

[13] = test system: E. coli DH5α (PUC19-blaNDM-9); experiment: MIC broth microdilution; type: cell-based; conditions: Escherichia coli
Procedure: as §2

[14] = test system: E. coli DH5α (PUC19-mcr-1); experiment: MIC broth microdilution; type: cell-based, Escherichia coli; conditions: Escherichia coli
Procedure: as §2

E. coli DH5α (PUC19) = experiment: MIC broth microdilution; type: cell-based, Escherichia coli; conditions: Escherichia coli; engineered E. coli DH5α (PUC19); MHB, 16-18 h, 37 °C; read-out: MIC
Procedure: as §2

[15] = test system: P. cibarius HNCF44W (blaNDM-1 + tet(X6)); experiment: organism not typed; type: cell-based; conditions: P. cibarius HNCF44W (blaNDM-1 + tet(X6)); MHB, 16-18 h, 37 °C; read-out: MIC
Procedure: as §2

P. aeruginosa PA14 = experiment: microbe, parasite or virus in culture; type: cell-based, Pseudomonas aeruginosa; conditions: Pseudomonas aeruginosa, PA14
Procedure: as §2

MRSA 1518 = experiment: microbe, parasite or virus in culture; type: cell-based, Staphylococcus aureus; conditions: Staphylococcus aureus; MRSA 1518; MHB, 16-18 h, 37 °C; read-out: MIC
Procedure: as §2

MRSA 1530 = experiment: microbe, parasite or virus in culture; type: cell-based, Staphylococcus aureus; conditions: Staphylococcus aureus; MRSA 1530; MHB, 16-18 h, 37 °C; read-out: MIC
Procedure: as §2

[16] = antibiotic in combination with LI14, checkerboard
[17] = in the presence of ¼ MIC of LI14

CN(C)c1cc(NC(=O)CNC(C)(C)C)c(O)c2c1C[C@H]1C[C@H]3[C@H](N(C)C)C(O)=C(C(N)=O)C(=O)[C@@]3(O)C(O)=C1C2=O [Tigecycline]
MIC (S. aureus ATCC 29213): 0.125 µg/mL (≈ 0.213 µM)
MIC (MRSA T144): 0.25 µg/mL (≈ 0.427 µM)
MIC (E. faecalis 1F-1): 16 µg/mL (≈ 27.3 µM)
MIC [1]: 0.125 µg/mL (≈ 0.213 µM)
MIC [2]: < 0.0625 µg/mL
MIC (E. faecium 5F-10): < 0.0625 µg/mL
MIC [3]: 0.25 µg/mL (≈ 0.427 µM)
MIC [4]: 0.5 µg/mL (≈ 0.854 µM)
FIC index [5, 16]: 0.5
MICa of antibiotic ([5]; in the absence of LI14): 0.063 µg/mL
MICb of antibiotic [5, 17]: 0.016 µg/mL
Potentiation [5, 17]: 4 fold
FIC index [6, 16]: 0.125
MICa of antibiotic ([6]; in the absence of LI14): 32 µg/mL
MICb of antibiotic [6, 17]: 2 µg/mL
Potentiation [6, 17]: 16 fold
MIC [7]: 64 µg/mL (≈ 109 µM)
MIC (A. baumannii ATCC 19609): 0.25 µg/mL (≈ 0.427 µM)
MIC [8]: 0.25 µg/mL (≈ 0.427 µM)
MIC (S. aureus G16 (RIF^R)): < 0.0625 µg/mL
MIC (E. coli ATCC 25922): 0.125 µg/mL (≈ 0.213 µM)
MIC [9]: 2 µg/mL
MIC (E. coli G92 (mcr-1)): 4 µg/mL (≈ 6.83 µM)
MIC (E. coli G6 (blaNDM-5)): 2 µg/mL (≈ 3.41 µM)
MIC (E. coli CP131 (mcr-3)): 2 µg/mL (≈ 3.41 µM)
MIC (E. coli 1F28 (tet(X4))): 16 µg/mL (≈ 27.3 µM)
MIC (E. coli B3-1 (tet(X4))): 32 µg/mL (≈ 54.6 µM)
MIC (E. coli C3 (blaNDM-1)): 2 µg/mL (≈ 3.41 µM)
MIC [10]: 64 µg/mL (≈ 109 µM)
MIC [11]: 1 µg/mL (≈ 1.71 µM)
MIC [12]: 1 µg/mL (≈ 1.71 µM)
MIC [13]: 1 µg/mL (≈ 1.71 µM)
MIC [14]: 1 µg/mL (≈ 1.71 µM)
MIC (E. coli DH5α (PUC19)): 1 µg/mL (≈ 1.71 µM)
MIC [15]: 64 µg/mL
MIC (P. aeruginosa PA14): < 0.0625 µg/mL
MIC (MRSA 1518): 0.25 µg/mL (≈ 0.427 µM)
MIC (MRSA 1530): 1 µg/mL (≈ 1.71 µM)
